We go through one compound from US20230201203A1, “METHODS OF TREATMENT USING A[…] PHARMACEUTICAL FORMULATIONS COMPRISING ANTIFOLATES” (EMPHASCIENCE, INC., priority 2020, published 2023).

A short description of the series: in vitro. The settings on record: human.

Each structure is given as a SMILES string.

In the case of `Nc1nc2[nH]cc(CCc3ccc(C(=O)N[C@@H](CCC(=O)O)C(=O)O)cc3)c2c(=O)[nH]1` [pemetrexed], the CC50 was at least 74 µg/mL.
